Structures can show the parent of a compound that is named as a salt. Where two headings read alike, the source gives them in different places.
Legend:
Caco-2 cell monolayers = experiment: Caco-assay: transport across Caco-2 cell monolayers; format: in vitro ADME, human; details: for % amount in the basolateral compartment: 10 μg/ml apical, four hours
Method: Transport of the compounds WX-508, WXC-316, WXC-318, WXC-324, WXC-340, WX-532, WX-538, WX-550 and WX-582 across Caco-2 cell monolayers was investigated. In this experiment the bioavailability of the said compounds after oral administration was assessed.
Caco-2-cells (American Type Culture Collection, Rockville, Md., USA) were cultured in Dulbecco's modified Eagle medium (DMEM) (Life Technologies, Gibco BRL, UK) containing 10% vol/vol heat-denatured foetal calf serum (FCS), 1% vol/vol non-essential amino acids, 160 U/ml benzylpenicillin and 100 U/ml streptomycin (Sigma Chemical, St. Louis, Mo., USA). The cells are kept at 37° C. in an atmosphere comprising 95% air and 5% CO2 at 90% relative air humidity. The cells are cultured in […] culture flasks, the medium being replaced every second day and the cells are trypsinized once per week.
For the transport investigations the Caco-2 cells are cultured on porous polycarbonate filter membranes having a pore size of 0.4 μm and a surface of 4.7 cm^2 in clusters of 6 wells (Costar Transwell, Badhoevedorp, Netherlands). The cells are inoculated on each filter at an initial density of 10^4 cells/cm^2. These cells are kept at 37° C. in one of the atmospheres described above. The medium is replaced every second day for a period of three weeks.
On the day of the transport experiment the culture medium was replaced by the same volume of Hank's balanced saline solution (HBSS) buffered with 30 mM HEPES at pH 7.2 (transport medium) and the cells are allowed to equilibrate for 1 hour. Afterwards the apical medium is replaced by 1.5 ml of a solution containing one of the compounds in HBSS/HEPES (10 μg/ml). Cell monolayers are incubated for four hours. Samples of the apical and basolateral compartments are removed at the end of the experiments and used to quantitatively determine the transport of the respective compounds.
The transepithelial electric resistance (TEER) is measured before and after equilibration using a Milicell ERS meter which was connected to a pair of electrodes in order to ensure the integrity of the monolayers formed on the filters. TEER is also measured at the end of the experiments to ensure that the cell monolayer remains coherent.
Samples are taken from the apical and the basolateral side and analysed in a beta counter after adding a scintillation cocktail. All experiments were carried out three times.

FXa = FXa (Homo sapiens, UniProt P00742); experiment: In vitro inhibition of FXa (Ki according to Dixon); format: biochemical
Method: (§1) In order to determine the inhibitory activity, 200 μl Tris buffer (0.05 mol/l containing the inhibitor, 0.154 mol/l NaCl, pH 8.0), 25 μl substrate (Pefachrome uPA, Pefachrome PL or Pefabloc TH in H2O; Pentapharm Ltd, Basle, Switzerland) and 50 μl urokinase (Calbiochem-Novabiochem GmbH, Bad Soden, Germany) or another appropriate protease e.g. plasmin, thrombin or FXa are incubated for 10 minutes at 30° C. After ca. 30 minutes and 30 cycles the absorption is determined at 405 nm by means of a microplate reader (Mediators PHL, Aureon Biosystems, Vienna, Austria). The Ki values were determined according to Dixon by linear regression using a computer program.

Plasmin = Plasmin (Homo sapiens, UniProt P00747); experiment: In vitro inhibition of plasmin (Ki according to Dixon); format: biochemical
Method: as §1

urokinase (uPA) = target: T1, urokinase (uPA) (Homo sapiens, UniProt P00749); experiment: In vitro inhibition of urokinase (Ki according to Dixon, chromogenic substrate); format: biochemical
T1 construct: purchased Calbiochem-Novabiochem GmbH, Bad Soden, Germany
In short: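 Chromogenic read-out in 0.05 mol/l Tris, 0.154 mol/l NaCl, pH 8.0, with inhibitor, substrate (Pefachrome uPA, Pefachrome PL or Pefabloc TH) and protease, incubated 10 min at 30 °C. Absorbance at 405 nm was read after ca. 30 min (30 cycles). Ki was derived by Dixon linear regression.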

PK = PK (Homo sapiens, UniProt P03952); experiment: In vitro inhibition of PK (Ki); format: biochemical; details: summary table
Method: as §1

[1] = Oral bioavailability and plasma kinetics in mice (serum concentration); format: in vivo, Balb/c mice; details: mouse; for concentration at 20 min / concentration at 40 min / concentration at 60 min: female, Balb/c, serum, po; for concentration at 20 min: sample at 20 minutes; for concentration at 40 min: sample at 40 minutes; for concentration at 60 min: sample at 60 minutes; for c in the serum 1st analysis / c in the serum 2nd analysis: 10 mg/kg i.v.
Thrombin = Thrombin (Homo sapiens, UniProt P00734); experiment: In vitro inhibition of thrombin (Ki according to Dixon); format: biochemical
Method: as §1

[2] = list of test substances of Example 17, read-out: Ki human uPA
[3] = summary table, read-out: Ki uPA
[4] = 30 mg/kg, 30 mg/kg oral, read-out: c in the serum 1st analysis
[5] = 30 mg/kg, 30 mg/kg oral, read-out: c in the serum 2nd analysis
[6] = 300 mg/kg, 300 mg/kg oral, read-out: c in the serum 1st analysis
[7] = 300 mg/kg, 300 mg/kg oral, read-out: c in the serum 2nd analysis

Chain of Plasmin (P00747 581-810 limits assumed, species assumed): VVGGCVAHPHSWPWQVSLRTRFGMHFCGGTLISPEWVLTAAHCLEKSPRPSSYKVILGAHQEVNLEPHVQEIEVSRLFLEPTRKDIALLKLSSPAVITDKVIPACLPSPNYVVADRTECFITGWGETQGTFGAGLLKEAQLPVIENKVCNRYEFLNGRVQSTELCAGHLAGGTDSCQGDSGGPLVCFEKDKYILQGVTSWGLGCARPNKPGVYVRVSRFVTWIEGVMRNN
Chain of Plasmin (P00747 97-580 partner limits assumed, species assumed): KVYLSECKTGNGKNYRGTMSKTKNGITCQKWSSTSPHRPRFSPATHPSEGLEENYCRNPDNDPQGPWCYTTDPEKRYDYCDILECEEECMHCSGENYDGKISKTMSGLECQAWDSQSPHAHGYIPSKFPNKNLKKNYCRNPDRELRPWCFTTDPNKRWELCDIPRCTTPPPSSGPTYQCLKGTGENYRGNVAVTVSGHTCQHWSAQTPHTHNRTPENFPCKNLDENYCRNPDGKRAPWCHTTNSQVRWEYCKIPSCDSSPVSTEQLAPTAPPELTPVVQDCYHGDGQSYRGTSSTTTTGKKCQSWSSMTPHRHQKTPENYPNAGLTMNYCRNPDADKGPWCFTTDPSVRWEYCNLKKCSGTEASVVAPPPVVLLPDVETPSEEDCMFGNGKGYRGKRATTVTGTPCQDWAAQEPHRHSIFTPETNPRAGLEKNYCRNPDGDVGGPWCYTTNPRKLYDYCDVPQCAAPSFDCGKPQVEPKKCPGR
Chain of PK (P03952 20-638): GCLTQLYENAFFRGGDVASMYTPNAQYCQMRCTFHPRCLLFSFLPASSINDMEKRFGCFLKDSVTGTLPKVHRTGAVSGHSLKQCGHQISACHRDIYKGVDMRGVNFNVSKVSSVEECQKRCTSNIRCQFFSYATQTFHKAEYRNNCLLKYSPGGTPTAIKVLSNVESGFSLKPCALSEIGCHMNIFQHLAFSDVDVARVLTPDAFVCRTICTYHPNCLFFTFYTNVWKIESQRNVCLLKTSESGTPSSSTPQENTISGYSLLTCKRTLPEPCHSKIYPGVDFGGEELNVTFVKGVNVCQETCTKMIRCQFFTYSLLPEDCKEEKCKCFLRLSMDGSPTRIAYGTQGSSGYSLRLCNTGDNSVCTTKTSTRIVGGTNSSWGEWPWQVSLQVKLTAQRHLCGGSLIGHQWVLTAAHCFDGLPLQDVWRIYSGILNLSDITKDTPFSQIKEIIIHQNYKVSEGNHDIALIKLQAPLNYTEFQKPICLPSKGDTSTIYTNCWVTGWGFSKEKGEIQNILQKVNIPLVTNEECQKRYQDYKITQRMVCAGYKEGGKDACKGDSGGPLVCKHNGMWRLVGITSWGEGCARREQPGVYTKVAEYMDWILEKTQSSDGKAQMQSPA
Chain of FXa (P00742 235-488 limits assumed): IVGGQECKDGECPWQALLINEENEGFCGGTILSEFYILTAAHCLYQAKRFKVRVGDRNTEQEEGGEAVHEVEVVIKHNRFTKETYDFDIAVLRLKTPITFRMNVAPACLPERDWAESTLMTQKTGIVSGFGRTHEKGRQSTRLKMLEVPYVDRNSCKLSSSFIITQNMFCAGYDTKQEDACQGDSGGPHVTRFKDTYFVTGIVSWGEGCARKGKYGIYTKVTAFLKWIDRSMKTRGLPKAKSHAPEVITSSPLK
Chain of FXa (P00742 41-179 partner limits assumed): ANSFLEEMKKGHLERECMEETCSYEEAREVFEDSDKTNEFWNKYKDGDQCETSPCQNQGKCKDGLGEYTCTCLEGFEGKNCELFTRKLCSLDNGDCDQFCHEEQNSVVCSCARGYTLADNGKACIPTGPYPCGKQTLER

SMILES	% amount in the basolateral compartment (Caco-2 cell monolayers; first value column) [%]	% amount in the basolateral compartment (Caco-2 cell monolayers; second value column) [%]	% amount in the basolateral compartment (Caco-2 cell monolayers; third value column) [%]	Caco-2 assay % basolateral (Caco-2 cell monolayers; first series, first value) [%]	Caco-2 assay % basolateral (Caco-2 cell monolayers; first series, second value) [%]	Caco-2 assay % basolateral (Caco-2 cell monolayers; first series, third value) [%]	Caco-2 assay % basolateral (Caco-2 cell monolayers; second series, first value) [%]	Caco-2 assay % basolateral (Caco-2 cell monolayers; second series, second value) [%]	Caco-2 assay % basolateral (Caco-2 cell monolayers; second series, third value) [%]	Ki (FXa) [µM]	Ki Plasmin (Plasmin)	Ki Plasmin (Plasmin; summary table)	Ki (urokinase (uPA); [2]) [nM]	Ki (urokinase (uPA); read-out: Ki uPA) [nM]	Ki (urokinase (uPA); [3]) [nM]	Ki (PK) [µM]	concentration at 20 min [1, 4] [ng/mL]	concentration at 20 min [1, 5] [ng/mL]	concentration at 40 min [1, 5] [ng/mL]	concentration at 60 min [1, 4] [ng/mL]	other results
N=C(N)Nc1ccc(CNC(=O)CNC(=O)C(CO)NS(=O)(=O)Cc2cccc([N+](=O)[O-])c2)cc1 (stereo not drawn) [WX-C316, 3-Nitrobenzyl-sulfonyl-(D)-Ser-Gly-(4-guanidinobenzyl)amide hydrochloride]	0.2	0.2	3.6	0.2	0.2	3.4	0.1	0.1	3.6	32.4	no inh. at 100 μM *)	no inh. at 100 μM *)	90	90	90	875	500	600	7100	400	concentration at 40 min [1, 4]: 5900 ng/mL; concentration at 60 min [1, 5]: 500 ng/mL; concentration at 20 min [1, 6]: 6000 ng/mL; concentration at 20 min [1, 7]: 7200 ng/mL; concentration at 40 min [1, 6]: 21800 ng/mL; concentration at 40 min [1, 7]: 32100 ng/mL; concentration at 60 min [1, 6]: 5300 ng/mL; concentration at 60 min [1, 7]: 5800 ng/mL; c in the serum 1st analysis ([1]; time of sample collection 0): 45.4 µg/mL; c in the serum 2nd analysis ([1]; time of sample collection 0): 67.5 µg/mL; c in the serum 1st analysis ([1]; time of sample collection 10): 12.4 µg/mL; c in the serum 2nd analysis ([1]; time of sample collection 10): 14.3 µg/mL; c in the serum 1st analysis ([1]; time of sample collection 30): 2.7 µg/mL; c in the serum 2nd analysis ([1]; time of sample collection 30): 2.6 µg/mL; Ki Thrombin (Thrombin): no inh. at 100 μM *); Ki Thrombin (Thrombin; summary table): no inh. at 100 μM *)
N=C(N)Nc1ccc(CNC(=O)CNC(=O)C(CO)NS(=O)(=O)Cc2cccc(Cl)c2)cc1 (stereo not drawn) [WX-C318, 3-Chlorobenzyl-sulfonyl-(D)-Ser-Gly-(4-guanidinobenzyl)amide hydrochloride]	0.4	1.0	4.5	0.4	1.0	4.5	0.2	0.6	7.0	36	no inh. at 100 μM *)	no inh. at 100 μM *)	47	47	47	176	100	200	50	200	concentration at 60 min [1, 5]: 200 ng/mL; concentration at 20 min [1, 6]: 100000 ng/mL; concentration at 20 min [1, 7]: 82600 ng/mL; concentration at 40 min [1, 6]: 5400 ng/mL; concentration at 40 min [1, 7]: 6200 ng/mL; concentration at 60 min [1, 6]: 7500 ng/mL; concentration at 60 min [1, 7]: 7700 ng/mL; c in the serum 2nd analysis ([1]; time of sample collection 0): 48.4 µg/mL; c in the serum 1st analysis ([1]; time of sample collection 10): 4.3 µg/mL; c in the serum 2nd analysis ([1]; time of sample collection 10): 5.5 µg/mL; c in the serum 1st analysis ([1]; time of sample collection 30): 0.7 µg/mL; c in the serum 2nd analysis ([1]; time of sample collection 30): 1.4 µg/mL; Ki Thrombin (Thrombin): no inh. at 100 μM *); Ki Thrombin (Thrombin; summary table): no inh. at 100 μM *)

Reference: patent US20040266766A1, “Selective urokinase inhibitors” (Wilex AG, priority 2001, published 2004)
